Key:
[1] = biological target: human immuno proteasome (LMP7) (Homo sapiens (Human), UniProt P28062); assay: Determination of LMP7 activity (fluorescence intensity assay, Suc-LLVY-AMC); type: biochemical
Procedure: Determination of LMP7 Activity:
Measurement of LMP7 inhibition is performed in 384 well format based on fluorescence intensity assay.
(§1) Purified human immuno proteasome (0.25 nM) and serial diluted compounds in DMSO (range of concentrations from 30 μM to 15 pM) or controls are incubated for 20 minutes or 120 minutes (long incubation) at 25° C. in assay buffer containing 50 mM Tris pH 7.4, 0.03% SDS, 1 mM EDTA and 1% DMSO. The reaction is initiated by the addition of the fluorogenic peptide substrate, Suc-LLVY-AMC (Bachem 1-1395), at a concentration of 40 μM. After 60 minutes of incubation at 37° C., fluorescence intensity is measured at λex=350 nm and λem=450 nm with a fluorescence reader (Perkin Elmer Envision reader or equivalent).
(§2) Unless indicated otherwise the results are obtained after incubation for 20 minutes.

[2] = biological target: human constitutive proteasome (Beta5) (Homo sapiens (Human), UniProt P28074); assay: Determination of Beta5 activity (fluorescence intensity assay, Suc-LLVY-AMC); type: biochemical
Procedure: Determination of Beta5 Activity:
Measurement of Beta5 inhibition is performed in 384 well format based on fluorescence intensity assay.
as §1, with “constitutive” for “immuno”, “(1.25” for “(0.25”
as §2

[3] = LMP7 versus Beta5, incubation for 20 minutes
[4] = LMP7 versus Beta5, long incubation (120 min)

| Molecule | Selectivity LMP7 vs Beta5 [1, 3] | IC50 ([1]; incubation for 20 minutes) [nM] | IC50 ([2]; incubation for 20 minutes) [nM] | Selectivity LMP7 vs Beta5 [1, 4] | IC50 ([1]; long incubation (120 min)) [nM] | IC50 ([2]; long incubation (120 min)) [nM] |
| --- | --- | --- | --- | --- | --- | --- |
| C=CC(=O)N(C)CC(=O)N[C@@H](Cc1ccc(C)c(C)c1)B(O)O [Compound No. 16, [(1R)-2-(3,4-dimethylphenyl)-1-[[2-[methyl(prop-2-enoyl)amino]-acetyl]amino]ethyl]boronic Acid] | +++++ (Selectivity ≥ 150) | < 50 | > 5000 | – | – | – |
| C=CC(=O)N1c2ccccc2CC1C(=O)N[C@@H](Cc1ccc(C)cc1C)B(O)O (stereo partly drawn) [Compound No. 8, [(1R)-2-(2,4-dimethylphenyl)-1-[(1-prop-2-enoylindoline-2-carbonyl)amino]ethyl]boronic Acid] | +++ (70 ≤ 100) | < 50 | 500 to 5000 | – | – | – |
| C=CC(=O)N(CC(=O)N[C@@H](CCc1ccccc1)B(O)O)c1ccccc1F [Compound No. 101, [(1R)-1-[[2-(2-fluoro-N-prop-2-enoyl-anilino)acetyl]amino]-3-phenyl-propyl]boronic acid] | – | – | – | +++++ (Selectivity ≥ 150) | < 50 | > 5000 |
| C=CC(=O)N(CC)CC(=O)N[C@@H](Cc1ccc(C)cc1C)B(O)O [Compound No. 34, [(1R)-2-(2,4-dimethylphenyl)-1-[[2-[ethyl(prop-2-enoyl)amino]acetyl]-amino]ethyl]boronic Acid] | ++++ (100 ≤ Selectivity < 150) | 50 to 500 | > 5000 | – | – | – |
| [(1R)-1-[[2-[but-2-ynoyl(propyl)amino]acetyl]amino]-2-(2,4-dimethylphenyl)ethyl]boronic Acid [Compound No. 3] | +++ (70 ≤ 100) | 50 to 500 | > 5000 | – | – | – |
| C=CC(=O)N(C)CC(=O)N[C@H](Cc1ccsc1)B(O)O [Compound No. 73, [(1S)-1-[[2-[methyl(prop-2-enoyl)amino]acetyl]amino]-2-(3-thienyl)ethyl]boronic Acid] | – | – | – | ++ (50 ≤ Selectivity < 70) | 500 to 5000 | > 5000 |
| C=CC(=O)N(CC(=O)N[C@@H](Cc1ccc(C)cc1C)B(O)O)c1c(F)cccc1F [Compound No. 43, [(1R)-1-[[2-(2,6-difluoro-N-prop-2-enoyl-anilino)acetyl]amino]-2-(2,4-dimethylphenyl)ethyl]boronic Acid] | – | – | – | +++++ (Selectivity ≥ 150) | < 50 | > 5000 |
| CCN(CC(=O)N[C@@H](Cc1ccc(C)cc1C)B(O)O)C(=O)/C=C/CN(C)C [Compound No. 105, [(1R)-1-[[2-[[(E)-4-(dimethylamino)but-2-enoyl]-ethyl-amino]-acetyl]amino]-2-(2,4-dimethylphenyl)ethyl]boronic Acid] | – | – | – | +++++ (Selectivity ≥ 150) | < 50 | > 5000 |
| C=CC(=O)N(CC(=O)N[C@@H](Cc1ccc(C)cc1C)B(O)O)c1ccccc1 [Compound No. 26, [(1R)-2-(2,4-dimethylphenyl)-1-[[2-(N-prop-2-enoylanilino)acetyl]-amino]ethyl]boronic Acid] | +++++ (Selectivity ≥ 150) | < 50 | 500 to 5000 | – | – | – |

Continued, values first:

| Selectivity LMP7 vs Beta5 [1, 3] | IC50 ([1]; incubation for 20 minutes) [nM] | IC50 ([2]; incubation for 20 minutes) [nM] | Selectivity LMP7 vs Beta5 [1, 4] | IC50 ([1]; long incubation (120 min)) [nM] | IC50 ([2]; long incubation (120 min)) [nM] | Molecule |
| --- | --- | --- | --- | --- | --- | --- |
| – | – | – | +++++ (Selectivity ≥ 150) | < 50 | > 5000 | C=CC(=O)N(C)CC(=O)N[C@@H](Cc1ccc(Cl)cc1Cl)B(O)O [Compound No. 85, [(1R)-2-(2,4-dichlorophenyl)-1-[[2-[methyl(prop-2-enoyl)amino]acetyl]amino]ethyl]boronic Acid] |
| – | – | – | +++++ (Selectivity ≥ 150) | < 50 | > 5000 | C=CC(=O)N(CC(=O)N[C@@H](Cc1ccc(C)cc1C)B(O)O)c1cc(F)ccc1F [Compound No. 42, [(1R)-1-[[2-(2,5-difluoro-N-prop-2-enoyl-anilino)acetyl]amino]-2-(2,4-dimethylphenyl)ethyl]boronic Acid] |
| – | – | – | +++++ (Selectivity ≥ 150) | < 50 | 500 to 5000 | C=CC(=O)N(CC(=O)N[C@@H](Cc1cccs1)B(O)O)c1ccc(Br)cc1 [Compound No. 104, [(1R)-1-[[2-(4-bromo-N-prop-2-enoyl-anilino)acetyl]amino]-2-(2-thienyl)ethyl]boronic Acid] |
| – | – | – | +++++ (Selectivity ≥ 150) | 50 to 500 | > 5000 | C=CC(=O)N(c1ccccc1)[C@H](C)C(=O)N[C@@H](Cc1ccc(C)cc1C)B(O)O [Compound No. 45, [(1R)-2-(2,4-dimethylphenyl)-1-[[(2R)-2-(N-prop-2-enoylanilino)propanoyl]amino]ethyl]boronic Acid] |
| + (Selectivity < 50) | 50 to 500 | > 5000 | – | – | – | C=CC(=O)N(CC(=O)N[C@@H](Cc1ccccc1)B(O)O)C(C)C [Compound No. 35, [(1R)-1-[[2-[isopropyl(prop-2-enoyl)amino]acetyl]amino]-2-phenyl-ethyl]boronic Acid] |
| ++ (50 ≤ Selectivity < 70) | 50 to 500 | > 5000 | – | – | – | C/C=C(\C)C(=O)N(CC)CC(=O)N[C@@H](Cc1ccc(C)cc1C)B(O)O [Compound No. 22, [(1R)-2-(2,4-dimethylphenyl)-1-[[2-[ethyl-[(E)-2-methylbut-2-enoyl]-amino]acetyl]amino]ethyl]boronic Acid] |
| – | – | – | +++++ (Selectivity ≥ 150) | < 50 | > 5000 | C=CC(=O)N(CC(=O)N[C@@H](Cc1ccsc1)B(O)O)c1ccccc1 [Compound No. 92, [(1R)-1-[[2-(N-prop-2-enoylanilino)acetyl]amino]-2-(3-thienyl)ethyl]boronic Acid] |
| +++++ (Selectivity ≥ 150) | 50 to 500 | > 5000 | – | – | – | C=CC(=O)N(CC)CC(=O)N[C@@H](Cc1ccc(C)c(C)c1)B(O)O [Compound No. 14, [(1R)-2-(3,4-dimethylphenyl)-1-[[2-[ethyl(prop-2-enoyl)amino]acetyl]-amino]-ethyl]boronic Acid] |
| – | – | – | +++++ (Selectivity ≥ 150) | < 50 | > 5000 | C=CC(=O)N(CC(=O)N[C@@H](Cc1ccsc1)B(O)O)C1CC1 [Compound No. 90, [(1R)-1-[[2-[cyclopropyl(prop-2-enoyl)amino]acetyl]amino]-2-(3-thienyl)ethyl]boronic Acid] |
| – | – | – | +++++ (Selectivity ≥ 150) | 50 to 500 | > 5000 | C=CC(=O)N(CC(=O)N[C@@H](Cc1ccsc1)B(O)O)c1ccccc1Cl [Compound No. 89, [(1R)-1-[[2-(2-chloro-N-prop-2-enoyl-anilino)acetyl]amino]-2-(3-thienyl)ethyl]boronic Acid] |
| – | – | – | +++++ (Selectivity ≥ 150) | < 50 | 500 to 5000 | C=CC(=O)NCC(=O)N[C@@H](Cc1ccc(C)c(C)c1)B(O)O [Compound No. 88, [(1R)-2-(3,4-dimethylphenyl)-1-[[2-(prop-2-enoylamino)acetyl]amino]ethyl]boronic Acid] |
| – | – | – | +++++ (Selectivity ≥ 150) | < 50 | > 5000 | C=CC(=O)N(CC(=O)N[C@@H](Cc1ccsc1)B(O)O)c1ccc(Cl)c(Cl)c1 [Compound No. 97, [(1R)-1-[[2-(3,4-dichloro-N-prop-2-enoyl-anilino)acetyl]amino]-2-(3-thienyl)ethyl]boronic Acid] |

— patent US10669289B2, “Boronic acid derivatives” (MERCK PATENT GMBH, priority 2014, dated 2020)
